Assay results taken from patent US11111214B2 (priority 2013, dated 2021).

Columns and labels:
[1] = not given; remark: listed apart in the source
[2] = biological target: T1, KOR (kappa opioid receptor) (Homo sapiens, UniProt P41145); assay: cell-based
T1 construct: expressed in transfected cells; host or cells: CHO-K1 cells stably expressing KOR

[3] = biological target: T2, recombinant human mu (MOR) opioid receptor (Homo sapiens, UniProt P35372); assay: biochemical; type: binding; details: for inhibition at 10 µM: read-out: Mu receptor % inhibition at single concentration, % inhibition @ 10 μM
T2 construct: expressed in transfected cells; host or cells: CHO-K1 cell membranes
T2 sequence (P35372 whole entry): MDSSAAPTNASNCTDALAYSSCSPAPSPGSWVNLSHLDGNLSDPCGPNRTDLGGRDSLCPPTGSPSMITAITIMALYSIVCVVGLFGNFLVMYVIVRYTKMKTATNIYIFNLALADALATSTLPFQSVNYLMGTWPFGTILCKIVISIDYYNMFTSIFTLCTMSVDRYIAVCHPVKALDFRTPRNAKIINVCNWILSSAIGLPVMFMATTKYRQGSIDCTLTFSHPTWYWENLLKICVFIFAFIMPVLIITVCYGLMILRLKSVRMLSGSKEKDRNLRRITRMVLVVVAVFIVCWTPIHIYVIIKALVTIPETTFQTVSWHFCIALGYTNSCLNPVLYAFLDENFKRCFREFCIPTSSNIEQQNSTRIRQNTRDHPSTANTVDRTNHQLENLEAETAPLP

in vitro [4] = details: rat, hepatocytes
[5] = biological target: T3, recombinant human kappa (KOR) opioid receptor (Homo sapiens, UniProt P41145); assay: biochemical; type: binding
T3 construct: expressed in transfected cells; host or cells: CHO-K1 cell membranes
T3 sequence (P41145 whole entry): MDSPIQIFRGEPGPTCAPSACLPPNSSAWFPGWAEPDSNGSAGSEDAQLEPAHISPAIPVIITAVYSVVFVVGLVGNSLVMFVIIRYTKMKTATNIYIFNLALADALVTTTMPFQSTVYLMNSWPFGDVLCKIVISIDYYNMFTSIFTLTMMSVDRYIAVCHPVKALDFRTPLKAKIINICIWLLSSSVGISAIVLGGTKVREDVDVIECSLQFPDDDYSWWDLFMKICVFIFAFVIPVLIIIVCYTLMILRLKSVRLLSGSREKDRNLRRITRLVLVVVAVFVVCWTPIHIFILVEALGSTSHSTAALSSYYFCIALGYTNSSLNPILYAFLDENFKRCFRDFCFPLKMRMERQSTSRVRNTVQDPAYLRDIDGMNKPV

in vitro [6] = details: human, hepatocytes

T1 sequence (P41145 whole entry): as above

COCCOCCOCCO[C@H]1CCN(C[C@H](c2ccccc2)N(C)C(=O)Cc2ccc(Cl)c(Cl)c2)C1.Cl [compound 4, 2-(3,4-Dichlorophenyl)-N-{(1S)-2-[(3S)-3-(2-(2-(2-methoxyethoxy)ethoxy]ethoxy)pyrrolidin-1-yl)-1-phenylethyl}-N-methylacetamide]
In vitro Hepatocyte Clearance, Human % hep Blood flow: 84% | In vitro Hepatocyte Clearance, Rat % hep Blood flow [1]: 82% | EC50 [2]: 0.42 nM | IC50 [3]: 20400 nM | inhibition at 10 µM [3]: 82% | CLhep predicted (in vitro [4]): 49 mL/min/kg | IC50 [5]: 8.9 nM | Ki [5]: 2.1 nM | CLhep predicted (in vitro [6]): 19.4 mL/min/kg

COCCOCCOCCOCCOCCNC(=O)O[C@H]1CCN(C[C@H](c2ccccc2)N(C)C(=O)Cc2ccc(Cl)c(Cl)c2)C1.Cl [compound 6, (3S)-1-[(2S)-2-{[(3,4-Dichlorophenyl)acetyl](methyl)amino}-2-phenylethyl]pyrrolidin-3-yl 2,5,8,11,14-pentaoxahexadecan-16-ylcarbamate]
In vitro Hepatocyte Clearance, Human % hep Blood flow: 86% | In vitro Hepatocyte Clearance, Rat % hep Blood flow [1]: 81% | EC50 [2]: 56 nM | IC50 [3]: 31200 nM | inhibition at 10 µM [3]: 20.6% | CLhep predicted (in vitro [4]): 48.8 mL/min/kg | IC50 [5]: 1100 nM | Ki [5]: 255 nM | CLhep predicted (in vitro [6]): 20.1 mL/min/kg

CCN(CCOC)C[C@H](c1ccccc1)N(C)C(=O)Cc1ccc(Cl)c(Cl)c1.Cl [compound 10, 2-(3,4-Dichlorophenyl)-N-{(1S)-2-[ethyl(2-methoxyethyl)amino]-1-phenylethyl}-N-methylacetamide]
In vitro Hepatocyte Clearance, Human % hep Blood flow: 89% | In vitro Hepatocyte Clearance, Rat % hep Blood flow [1]: 83% | EC50 [2]: 3.1 nM | inhibition at 10 µM [3]: 82.8% | CLhep predicted (in vitro [4]): 49.7 mL/min/kg | IC50 [5]: 82.7 nM | Ki [5]: 19.1 nM | CLhep predicted (in vitro [6]): 20.6 mL/min/kg

CCCCOCCOCCOCCS(=O)(=O)Nc1cccc([C@@H](CN2CCCC2)N(C)C(=O)Cc2ccc(Cl)c(Cl)c2)c1 [compound 21, N-[(1S)-1-{3-[({2-[2-(2-butoxyethoxy)ethoxy]ethyl}sulfonyl)amino]phenyl}-2-(pyrrolidin-1-yl)ethyl]-2-(3,4-dichlorophenyl)-N-methylacetamide]
EC50 [2]: 0.2 nM | inhibition at 10 µM [3]: 96.5% | IC50 [5]: 0.18 nM | Ki [5]: 0.04 nM

CN(C(=O)Cc1ccc(Cl)c(Cl)c1)[C@H](CN1CCCC1)c1cccc(NS(=O)(=O)C2CS(=O)(=O)CC2O)c1 (stereo partly drawn) [compound 22, 2-(3,4-dichlorophenyl)-N-[(1S)-1-(3-{[(4-hydroxy-1,1-dioxidotetrahydrothiophen-3-yl)sulfonyl]amino}phenyl)-2-(pyrrolidin-1-yl)ethyl]-N-methylacetamide]
EC50 [2]: 0.03 nM | inhibition at 10 µM [3]: 90.2% | IC50 [5]: 0.32 nM | Ki [5]: 0.07 nM

CN(C(=O)Cc1ccc(Cl)c(Cl)c1)[C@H](CN1CC[C@H](OCCOCCO)C1)c1ccccc1 [compound 26, 2-(3,4-Dichlorophenyl)-N-[(1S)-2-{(3S)-3-[2-(2-hydroxyethoxy)ethoxy]pyrrolidin-1-yl}-1-phenylethyl]-N-methylacetamide]
EC50 [2]: 14.3 nM | IC50 [3]: 38700 nM | inhibition at 10 µM [3]: 35.1% | IC50 [5]: 1130 nM | Ki [5]: 148 nM

COCCOCC(=O)Nc1cccc([C@@H](CN2CC[C@H](O)C2)N(C)C(=O)Cc2ccc(Cl)c(Cl)c2)c1 [compound 50, 2-(3,4-dichlorophenyl)-N-[(1S)-2-[(3S)-3-hydroxypyrrolidin-1-yl]-1-(3-{[(2-methoxyethoxy)acetyl]amino}phenyl)ethyl]-N-methylacetamide]
EC50 [2]: 0.06 nM | inhibition at 10 µM [3]: 101% | IC50 [5]: 0.52 nM | Ki [5]: 0.12 nM

COCCOCCOCCOCCOCCOc1ccc([C@@H](CN2CCCC2)N(C)C(=O)Cc2ccc(Cl)c(Cl)c2)cc1.Cl [compound 34, (S)—N-(1-(4-(2,5,8,11,14-pentaoxahexadecan-16-yloxy)phenyl)-2-(pyrrolidin-1-yl)ethyl)-2-(3,4-dichlorophenyl)-N-methylacetamide]
In vitro Hepatocyte Clearance, Human % hep Blood flow: 71% | In vitro Hepatocyte Clearance, Rat % hep Blood flow [1]: 26% | EC50 [2]: 13 nM | inhibition at 10 µM [3]: 17.6% | CLhep predicted (in vitro [4]): 15.4 mL/min/kg | IC50 [5]: 107 nM | Ki [5]: 24.6 nM | CLhep predicted (in vitro [6]): 16.4 mL/min/kg

COCCOCCOCCNC(=O)O[C@H]1CCN(C[C@H](c2ccccc2)N(C)C(=O)Cc2ccc(Cl)c(Cl)c2)C1.Cl [compound 5, (3S)-1-[(2S)-2-{[(3,4-Dichlorophenyl)acetyl](methyl)amino}-2-phenylethyl]pyrrolidin-3-yl {2-[2-(2-methoxyethoxy)ethoxy]ethyl}carbamate]
In vitro Hepatocyte Clearance, Human % hep Blood flow: 88% | In vitro Hepatocyte Clearance, Rat % hep Blood flow [1]: 82% | EC50 [2]: 75.7 nM | inhibition at 10 µM [3]: 35.6% | CLhep predicted (in vitro [4]): 49.1 mL/min/kg | IC50 [5]: 1190 nM | Ki [5]: 275 nM | CLhep predicted (in vitro [6]): 20.4 mL/min/kg

CN(C(=O)Cc1ccc(Cl)c(Cl)c1)[C@H](CN1CCCC1)c1cccc(NS(C)(=O)=O)c1 [compound 14, 2-(3,4-dichlorophenyl)-N-methyl-N-[(1S)-1-{3-[(methylsulfonyl)amino]phenyl}-2-(pyrrolidin-1-yl)ethyl]acetamide]
EC50 [2]: 0.05 nM | inhibition at 10 µM [3]: 99.3% | IC50 [5]: 0.34 nM | Ki [5]: 0.08 nM

CN(C(=O)C(c1ccccc1)c1ccccc1)[C@H](CN1CCCC1)c1cccc(N)c1 [compound 51, (S)—N-Methyl-N-(1-(3-aminophenyl)-2-(pyrrolidin-1-yl)ethyl)-2,2-diphenylacetamide]
EC50 [2]: 5.18 nM | inhibition at 10 µM [3]: 54.5% | IC50 [5]: 62.2 nM | Ki [5]: 14.3 nM

COCCOCCOCCOCCOCCNc1ccc([C@@H](CN2CCCC2)N(C)C(=O)Cc2ccc(Cl)c(Cl)c2)cc1 [compound 35, (S)—N-(1-(4-(2,5,8,11,14-pentaoxahexadecan-16-ylamino)phenyl)-2-(pyrrolidin-1-yl)ethyl)-2-(3,4-dichlorophenyl)-N-methylacetamide]
In vitro Hepatocyte Clearance, Human % hep Blood flow: 65% | In vitro Hepatocyte Clearance, Rat % hep Blood flow [1]: 44% | EC50 [2]: 2.59 nM | inhibition at 10 µM [3]: 30.6% | CLhep predicted (in vitro [4]): 26.5 mL/min/kg | IC50 [5]: 24.7 nM | Ki [5]: 5.7 nM | CLhep predicted (in vitro [6]): 15 mL/min/kg

CN(C(=O)C(c1ccccc1)c1ccccc1)[C@H](CN1CC[C@H](O)C1)c1ccccc1 [Asimadoline, asimadoline, reference compound]
In vitro Hepatocyte Clearance, Human % hep Blood flow: 79.0% | In vitro Hepatocyte Clearance, Rat % hep Blood flow [1]: 85.0% | CLhep predicted (in vitro [4]): 51 mL/min/kg | CLhep predicted (in vitro [6]): 18.2 mL/min/kg

CN(C(=O)Cc1ccc(Cl)c(Cl)c1)[C@H](CN1CC[C@H](OCCO)C1)c1ccccc1 [compound 25, 2-(3,4-Dichlorophenyl)-N-{(1S)-2-[(3S)-3-(2-hydroxyethoxy)pyrrolidin-1-yl]-1-phenylethyl}-N-methylacetamide]
EC50 [2]: 4.07 nM | IC50 [3]: 4510 nM | inhibition at 10 µM [3]: 57.5% | IC50 [5]: 31.8 nM | Ki [5]: 4.15 nM

CN(C(=O)Cc1ccc(Cl)c(Cl)c1)[C@H](CN1CCCC1)c1ccccc1 [ICI-199,441, reference compound]
In vitro Hepatocyte Clearance, Human % hep Blood flow: 85.0% | In vitro Hepatocyte Clearance, Rat % hep Blood flow [1]: 73.0% | CLhep predicted (in vitro [4]): 44 mL/min/kg | CLhep predicted (in vitro [6]): 19.7 mL/min/kg

COCCOCCOCCOCCOCCO[C@H]1CCN(C[C@H](c2ccccc2)N(C)C(=O)C(c2ccccc2)c2ccccc2)C1 [compound 9, N-Methyl-N-{(1S)-2-[(3S)-3-(2,5,8,11,14-pentaoxahexadecan-16-yloxy)pyrrolidin-1-yl]-1-phenylethyl}-2,2-diphenylacetamide]
EC50 [2]: 178 nM | inhibition at 10 µM [3]: 36.9% | IC50 [5]: 8970 nM | Ki [5]: 2070 nM
